Results reported in ChEMBL document CHEMBL5532639, “Heterocyclic pyrimidine derivatives as promising antibacterial agents” (Eur J Med Chem, 2023).
≈ marks a conversion by molar mass, not a printed value.

Tests used:
[1] = system: Corynebacterium glutamicum; assay: Antibacterial activity against Corynebacterium glutamicum; type: functional
Corynebacterium sp. = assay: Antibacterial activity against Corynebacterium sp.; type: functional
[2] = system: Staphylococcus epidermidis; assay: Antibacterial activity against Staphylococcus epidermidis assessed as reduction in microbial growth after 24 hrs by CLSI based microdilution method; type: functional
Micrococcus luteus [3] = assay: Antibacterial activity against Micrococcus luteus assessed as bacterial growth inhibition by paper disc diffusion assay; type: functional
Micrococcus sp. = assay: Antibacterial activity against Micrococcus sp.; type: functional
Corynebacterium xerosis = assay: Antibacterial activity against Corynebacterium xerosis; type: functional
Moraxella catarrhalis = assay: Antibacterial activity against Moraxella catarrhalis assessed as reduction in bacterial growth by broth microdilution method; type: functional
Staphylococcus hominis = assay: Antibacterial activity against Staphylococcus hominis; type: functional
Staphylococcus xylosus = assay: Antibacterial activity against Staphylococcus xylosus assessed as reduction in bacterial growth; type: functional
Acinetobacter sp. = assay: Antibacterial activity against Acinetobacter sp.; type: functional
Micrococcus luteus [4] = assay: Antibacterial activity against Micrococcus luteus assessed as reduction in microbial growth; type: functional
Staphylococcus cohnii = assay: Antibacterial activity against Staphylococcus cohnii; type: functional
[5] = system: Arcanobacterium haemolyticum; assay: Antibacterial activity against Arcanobacterium haemolyticum; type: functional
Alcaligenes faecalis = assay: Antibacterial activity against Alcaligenes faecalis; type: functional
[6] = system: Staphylococcus epidermidis; assay: Antibacterial activity against Staphylococcus epidermidis assessed as reduction in bacterial growth measured after 24 hrs by broth microdilution method; type: functional
[7] = system: Staphylococcus haemolyticus; assay: Antibacterial activity against Staphylococcus haemolyticus clinical isolates assessed as bacterial growth inhibition measured after 16 to 24 hrs by broth microdilution assay; type: functional; conditions: time 16-24 hrs
[8] = system: Corynebacterium glutamicum; assay: Antibacterial activity against Corynebacterium glutamicum ATCC 13032 cultured in MHB medium assessed as no bacterial growth incubated at 20 degC for 24 hrs by microdilution susceptibility test; type: functional
Enterococcus raffinosus = assay: Antibacterial activity against Enterococcus raffinosus assessed as bacterial growth inhibition incubated for 24 hrs by CLSI protocol based Mueller-Hinton broth assay; type: functional
Staphylococcus aureus [9] = assay: Antibacterial activity against Staphylococcus aureus assessed as bacterial growth inhibition incubated for 24 hrs by CLSI protocol based Mueller-Hinton broth assay; type: functional
Escherichia coli [10] = assay: microbe, parasite or virus in culture; conditions: ATCC 25922, 24 h
Description: Antibacterial activity against Escherichia coli ATCC 25922 assessed as reduction in bacterial growth measured after 24 hrs by Mueller-Hinton broth assay

Pseudomonas aeruginosa [11] = assay: Antibacterial activity against Pseudomonas aeruginosa ATCC 85327 assessed as reduction in bacterial growth measured after 24 hrs by Mueller-Hinton broth assay; type: functional
Bacillus subtilis [12] = assay: Antibacterial activity against Bacillus subtilis ATCC 465 assessed as reduction in bacterial growth measured after 24 hrs by Mueller-Hinton broth assay; type: functional
Staphylococcus aureus [13] = assay: microbe, parasite or virus in culture; conditions: ATCC 25923, 24 h
Description: Antibacterial activity against Staphylococcus aureus ATCC 25923 assessed as reduction in bacterial growth measured after 24 hrs by Mueller-Hinton broth assay

Escherichia coli [14] = assay: Antibacterial activity against Escherichia coli assessed as inhibition of bacterial growth incubated for 4 to 20 hrs by resazurin based microplate reader analysis; type: functional; conditions: time 4-20 hrs
Bacillus subtilis [15] = assay: Antibacterial activity against Bacillus subtilis assessed as inhibition of bacterial growth incubated for 4 to 20 hrs by resazurin based microplate reader analysis; type: functional; conditions: time 4-20 hrs
Staphylococcus aureus [16] = assay: Antibacterial activity against Staphylococcus aureus assessed as inhibition of bacterial growth incubated for 4 to 20 hrs by resazurin based microplate reader analysis; type: functional; conditions: time 4-20 hrs
Pseudomonas aeruginosa [17] = assay: Antibacterial activity against Pseudomonas aeruginosa assessed as inhibition of bacterial growth incubated for 4 to 20 hrs by resazurin based microplate reader analysis; type: functional; conditions: time 4-20 hrs
Staphylococcus aureus [18] = assay: Antibacterial activity against Staphylococcus aureus assessed as reduction in bacterial growth incubated for 16 to 20 hrs by Mueller-Hinton broth based two-fold serial dilution method; type: functional; conditions: time 16-20 hrs
Streptococcus pyogenes = assay: Antibacterial activity against Streptococcus pyogenes assessed as reduction in microbial growth incubated for 24 hrs by broth micro-dilution method; type: functional
Klebsiella pneumoniae = assay: Antibacterial activity against Klebsiella pneumoniae assessed as reduction in bacterial growth incubated for 16 to 20 hrs by Mueller-Hinton broth based two-fold serial dilution method; type: functional; conditions: time 16-20 hrs
Pseudomonas aeruginosa [19] = assay: Antibacterial activity against Pseudomonas aeruginosa assessed as reduction in bacterial growth incubated for 24 hrs by broth microdilution method; type: functional
Escherichia coli [20] = assay: Antibacterial activity against Escherichia coli assessed as reduction in bacterial growth incubated for 16 to 20 hrs by Mueller-Hinton broth based two-fold serial dilution method; type: functional; conditions: time 16-20 hrs

Clc1ccc(C(Cc2cccc(Cl)c2)c2c(Cl)nc(N3CCNCC3)nc2Cl)cc1 (stereo unspecified) was tested, and the MIC [1] was 50 µg/mL (≈ 104 µM), the MIC (Corynebacterium sp.) was 75 µg/mL (≈ 156 µM) and the MIC [2] was 75 µg/mL. It also gave an MIC (Micrococcus luteus [3]) of 75 µg/mL (≈ 156 µM), an MIC (Micrococcus sp.) of 75 µg/mL (≈ 156 µM) and an MIC (Corynebacterium xerosis) of 30 µg/mL (≈ 62.2 µM). The MIC (Moraxella catarrhalis) was 50 µg/mL (≈ 104 µM), the MIC (Staphylococcus hominis) was 75 µg/mL (≈ 156 µM) and the MIC (Staphylococcus xylosus) was 100 µg/mL (≈ 207 µM). It also gave an MIC (Acinetobacter sp.) of 30 µg/mL (≈ 62.2 µM), an MIC (Micrococcus luteus [4]) of 100 µg/mL and an MIC (Staphylococcus cohnii) of 75 µg/mL (≈ 156 µM). It also gave an MIC [5] of 10 µg/mL (≈ 20.7 µM), an MIC (Alcaligenes faecalis) greater than 500 µg/mL and an MIC [6] of 75 µg/mL (≈ 156 µM). It also gave an MIC [7] of 50 µg/mL (≈ 104 µM) and an MIC [8] of 50 µg/mL (≈ 104 µM).
For COc1ccc(-c2nc(-c3ccccc3)nc3[nH]nc(N)c23)cc1, the MIC (Enterococcus raffinosus) was 14.2 µg/mL (≈ 44.7 µM) and the MIC (Staphylococcus aureus [9]) was 4.2 µg/mL (≈ 13.2 µM).
Work on N#Cc1nc2[nH]c(=O)[nH]c(=O)c2c(-c2ccc(Cl)cc2)c1N yielded an MIC (Escherichia coli [10]) of 512 µg/mL (≈ 1630 µM), an MIC (Pseudomonas aeruginosa [11]) of 512 µg/mL (≈ 1630 µM) and an MIC (Bacillus subtilis [12]) of 8 µg/mL (≈ 25.5 µM). It also gave an MIC (Staphylococcus aureus [13]) of 2 µg/mL (≈ 6.38 µM).
Cc1nc(NC(=O)c2ccncc2)c2c(C(F)(F)F)cc(-c3ccccc3)nc2n1 was tested, and the MIC (Escherichia coli [14]) was 50 µg/mL (≈ 122 µM), the MIC (Bacillus subtilis [15]) was 12.5 µg/mL (≈ 30.5 µM) and the MIC (Staphylococcus aureus [16]) was 12.5 µg/mL (≈ 30.5 µM). For the same compound, the MIC (Pseudomonas aeruginosa [17]) was 50 µg/mL (≈ 122 µM).
For CCCCCCCc1ccc(C(=O)Nc2nc(C)nc3nc(-c4ccccc4)cc(C(F)(F)F)c23)cc1, the MIC (Escherichia coli [14]) was 50 µg/mL (≈ 98.7 µM), the MIC (Bacillus subtilis [15]) was 12.5 µg/mL (≈ 24.7 µM) and the MIC (Staphylococcus aureus [16]) was 12.5 µg/mL (≈ 24.7 µM). The MIC (Pseudomonas aeruginosa [17]) was 50 µg/mL (≈ 98.7 µM).
With Nc1c(-c2nc3ccccc3s2)c(-c2ccc(Cl)cc2)nc2nc(N/N=C/c3cccc(F)c3)[nH]c(=O)c12 the MIC (Staphylococcus aureus [18]) was 12.5 µg/mL (≈ 23.1 µM), the MIC (Streptococcus pyogenes) was 12.5 µg/mL and the MIC (Klebsiella pneumoniae) was 25 µg/mL (≈ 46.1 µM). It also gave an MIC (Pseudomonas aeruginosa [19]) of 25 µg/mL (≈ 46.1 µM) and an MIC (Escherichia coli [20]) of 25 µg/mL (≈ 46.1 µM).
